Test results: US20090226527A1, “Particulate-stabilized injectable pharmacutical compositions of posaconazole” (priority 2004, published 2009)
In brackets after ≈: the same amount, converted by molar mass. Read-outs that look alike come from different tables or passages of the source.

Tests used:
[1] = Orally administered Posaconazole: plasma Cmax/Cavg by quartile and response rate for aspergillosis; format: in vivo, patients; settings: human, plasma, po, 800 mg/day
Text: (§1) In order to determine the target dosing for intravenous administration, it was necessary to determine a target range for mean Cavg and mean Cmax. Previous studies on orally administered Posaconazole are instructive in this regard.
(§2) At the same time, posaconazole has a long half-life and a large volume of distribution that results in sustained plasma levels and extensive penetration into body tissues with a likely accumulation in tissues. […] Thus, it can be inferred that posaconazole's long half-life and large volume of distribution results in sustained plasma and tissue levels allowing for safer and better tolerated pharmacokinetic behavior.

aspergillosis = test: as above; format: in vivo, patients
Text: as §1, §2

[2] = Rising Multiple Dose Study: plasma pharmacokinetics, safety, relative bioavailability of POS IV vs POS oral suspension; format: in vivo, human
Description: A rising, multiple dose assessment of the safety, tolerability, and pharmacokinetics of intravenous Posaconazole in healthy subjects was also conducted. The pharmacokinetic objectives of the study were two-fold: first, to determine the single-dose and multiple-dose pharmacokinetic (PK) profiles of POS IV in healthy subjects; and second, to determine the relative bioavailability of POS IV vs POS oral suspension administered under fed conditions. The formulation used in this study is that of Example 8.
Plasma obtained from blood samples was analyzed for POS using a validated LC-MS/MS method. Plasma pharmacokinetic parameters were determined. Safety was assessed by ECGs, clinical laboratory tests, vital signs, and adverse event monitoring.

[3] = Solubility of Posaconazole in water; format: physicochemical
[4] = test system: infectious agents (strains tested); test: organism not typed; format: cell-based

## CCC([C@@H](C)O)n1ncn(-c2ccc(N3CCN(c4ccc(OC[C@@H]5CO[C@@](Cn6cncn6)(c6ccc(F)cc6F)C5)cc4)CC3)cc2)c1=O (stereo partly shown) [Posaconazole]
[1]; Quartile 1, n = 17
  Cmax: 142 ng/mL
[1]; Quartile 2, n = 17
  Cmax: 467 ng/mL
[1]; Quartile 3, n = 17
  Cmax: 852 ng/mL
[1]; Quartile 4, n = 16
  Cmax: 1480 ng/mL
aspergillosis; Quartile 1
  Response (response rate for aspergillosis): 24%
aspergillosis; Quartile 1, n = 17
  Plasma Cavg, mean: 134 ng/mL
aspergillosis; Quartile 2
  Response (response rate for aspergillosis): 53%
aspergillosis; Quartile 2, n = 17
  Plasma Cavg, mean: 411 ng/mL
aspergillosis; Quartile 3
  Response (response rate for aspergillosis): 53%
aspergillosis; Quartile 3, n = 17
  Plasma Cavg, mean: 719 ng/mL
aspergillosis; Quartile 4
  Response (response rate for aspergillosis): 71%
aspergillosis; Quartile 4, n = 16
  Plasma Cavg, mean: 1250 ng/mL
[2]; 100- to 400-mg range
  Dose proportionality of exposure (Cmax and AUC): approximately dose proportional
[2]; healthy subjects, 100-400 mg
  Safety and tolerability: safe and well tolerated
[2]; human, in vivo
  Daily dosing needed to achieve steady-state: 6 to 7 days
[2]; human, in vivo, Mean systemic clearance at steady-state
  clearance: 90 to 93.3 mL/min
[2]; human, in vivo, Mean systemic clearance, single-dose administration on Day 1
  clearance: 137 to 192 mL/min
[2]; human, in vivo, Single-dose half-life
  half-life: 26 to 29 h
[2]; human, in vivo, plasma, read-out: Mean steady-state terminal half-life
  half-life: 33 to 37 h
[3]
  Solubility in water: minimally soluble in water
[4]; Absidia spp, read-out: Geometric Mean MIC
  MIC: 0.177 µg/mL (≈ 0.253 µM)
[4]; Absidia spp, read-out: MIC[90]
  MIC: 0.031 to 0.5 µg/mL (≈ 0.0442 to 0.713 µM)
[4]; Alternaria spp, read-out: Geometric Mean MIC
  MIC: 0.101 µg/mL (≈ 0.144 µM)
[4]; Alternaria spp, read-out: MIC[90]
  MIC: 0.25 µg/mL (≈ 0.357 µM)
[4]; Apophysomyces spp, read-out: Geometric Mean MIC
  MIC: 0.34 µg/mL (≈ 0.485 µM)
[4]; Apophysomyces spp, read-out: MIC[90]
  MIC: 0.031 to 4 µg/mL (≈ 0.0442 to 5.71 µM)
[4]; Arthroderma terrestre, Trichophyton terrestre, read-out: Geometric Mean MIC
  MIC: 0.125 µg/mL (≈ 0.178 µM)
[4]; Arthroderma terrestre, Trichophyton terrestre, read-out: MIC[90]
  MIC: 0.125 µg/mL (≈ 0.178 µM)
[4]; Aspergillus flavus, read-out: Geometric Mean MIC
  MIC: 0.079 µg/mL (≈ 0.113 µM)
[4]; Aspergillus flavus, read-out: MIC[90]
  MIC: 0.25 µg/mL (≈ 0.357 µM)
[4]; Aspergillus fumigatus, read-out: Geometric Mean MIC
  MIC: 0.118 µg/mL (≈ 0.168 µM)
[4]; Aspergillus fumigatus, read-out: MIC[90]
  MIC: 0.5 µg/mL (≈ 0.713 µM)
[4]; Aspergillus nidulans, read-out: Geometric Mean MIC
  MIC: 0.055 µg/mL (≈ 0.0785 µM)
[4]; Aspergillus nidulans, read-out: MIC[90]
  MIC: 0.25 µg/mL (≈ 0.357 µM)
[4]; Aspergillus niger, read-out: Geometric Mean MIC
  MIC: 0.195 µg/mL (≈ 0.278 µM)
[4]; Aspergillus niger, read-out: MIC[90]
  MIC: 0.5 µg/mL (≈ 0.713 µM)
[4]; Aspergillus sydowii, read-out: Geometric Mean MIC
  MIC: 0.177 µg/mL (≈ 0.253 µM)
[4]; Aspergillus sydowii, read-out: MIC[90]
  MIC: 0.031 to 0.5 µg/mL (≈ 0.0442 to 0.713 µM)
[4]; Aspergillus terreus, read-out: Geometric Mean MIC
  MIC: 0.052 µg/mL (≈ 0.0742 µM)
[4]; Aspergillus terreus, read-out: MIC[90]
  MIC: 0.25 µg/mL (≈ 0.357 µM)
[4]; Aspergillus ustus, read-out: Geometric Mean MIC
  MIC: 1.64 µg/mL (≈ 2.34 µM)
[4]; Aspergillus ustus, read-out: MIC[90]
  MIC: 0.25 to 8 µg/mL (≈ 0.357 to 11.4 µM)
[4]; Bipolaris spp, read-out: Geometric Mean MIC
  MIC: 0.354 µg/mL (≈ 0.505 µM)
[4]; Bipolaris spp, read-out: MIC[90]
  MIC: 0.125 to 1 µg/mL (≈ 0.178 to 1.43 µM)
[4]; Bjerkandera adusta, read-out: Geometric Mean MIC
  MIC: 0.25 µg/mL (≈ 0.357 µM)
[4]; Bjerkandera adusta, read-out: MIC[90]
  MIC: 0.25 µg/mL (≈ 0.357 µM)
[4]; Blastomyces dermatitidis, read-out: Geometric Mean MIC
  MIC: 0.053 µg/mL (≈ 0.0756 µM)
[4]; Blastomyces dermatitidis, read-out: MIC[90]
  MIC: 0.125 µg/mL (≈ 0.178 µM)
[4]; Candida albicans, read-out: Geometric Mean MIC
  MIC: 0.037 µg/mL (≈ 0.0528 µM)
[4]; Candida albicans, read-out: MIC[90]
  MIC: 0.25 µg/mL (≈ 0.357 µM)
[4]; Candida dubliniensis, read-out: Geometric Mean MIC
  MIC: 0.062 µg/mL (≈ 0.0885 µM)
[4]; Candida dubliniensis, read-out: MIC[90]
  MIC: 0.25 µg/mL (≈ 0.357 µM)
[4]; Candida tropicalis, read-out: Geometric Mean MIC
  MIC: 0.081 µg/mL (≈ 0.116 µM)
[4]; Candida tropicalis, read-out: MIC[90]
  MIC: 0.25 µg/mL (≈ 0.357 µM)
[4]; Clavispora lusitaniae, Candida lusitaniae, read-out: Geometric Mean MIC
  MIC: 0.048 µg/mL (≈ 0.0685 µM)
[4]; Clavispora lusitaniae, Candida lusitaniae, read-out: MIC[90]
  MIC: 0.125 µg/mL (≈ 0.178 µM)
[4]; Coccidioides immitis, read-out: Geometric Mean MIC, Coccidioides immitis
  MIC: 0.304 µg/mL (≈ 0.434 µM)
[4]; Coccidioides immitis, read-out: MIC[90], Coccidioides immitis
  MIC: 1 µg/mL (≈ 1.43 µM)
[4]; Cryptococcus neoformans, read-out: Geometric Mean MIC
  MIC: 0.119 µg/mL (≈ 0.17 µM)
[4]; Cryptococcus neoformans, read-out: MIC[90]
  MIC: 0.25 µg/mL (≈ 0.357 µM)
[4]; Curvularia spp, read-out: Geometric Mean MIC
  MIC: 0.072 µg/mL (≈ 0.103 µM)
[4]; Curvularia spp, read-out: MIC[90]
  MIC: 0.031 to 0.125 µg/mL (≈ 0.0442 to 0.178 µM)
[4]; Debaryomyces hansenii, Candida famata, read-out: Geometric Mean MIC
  MIC: 0.125 µg/mL (≈ 0.178 µM)
[4]; Debaryomyces hansenii, Candida famata, read-out: MIC[90]
  MIC: 0.5 µg/mL (≈ 0.713 µM)
[4]; Diutina rugosa, Candida rugosa, read-out: Geometric Mean MIC
  MIC: 0.039 µg/mL (≈ 0.0557 µM)
[4]; Diutina rugosa, Candida rugosa, read-out: MIC[90]
  MIC: 0.5 µg/mL (≈ 0.713 µM)
[4]; Dujonia zeylanoides, Candida zeylanoides, read-out: Geometric Mean MIC
  MIC: 0.031 µg/mL (≈ 0.0442 µM)
[4]; Dujonia zeylanoides, Candida zeylanoides, read-out: MIC[90]
  MIC: 0.008 to 0.25 µg/mL (≈ 0.0114 to 0.357 µM)
[4]; Epidermophyton floccosum, read-out: Geometric Mean MIC
  MIC: 0.029 µg/mL (≈ 0.0414 µM)
[4]; Epidermophyton floccosum, read-out: MIC[90]
  MIC: 0.125 µg/mL (≈ 0.178 µM)
[4]; Exophiala dermatidis, read-out: Geometric Mean MIC
  MIC: 0.125 µg/mL (≈ 0.178 µM)
[4]; Exophiala dermatidis, read-out: MIC[90]
  MIC: 0.125 µg/mL (≈ 0.178 µM)
[4]; Exophiala dermatitidis, Wangiella dermatitidis, read-out: Geometric Mean MIC
  MIC: 0.088 µg/mL (≈ 0.126 µM)
[4]; Exophiala dermatitidis, Wangiella dermatitidis, read-out: MIC[90]
  MIC: 0.063 to 0.125 µg/mL (≈ 0.0899 to 0.178 µM)
[4]; Exophiala jeanselmei, read-out: Geometric Mean MIC
  MIC: 0.287 µg/mL (≈ 0.41 µM)
[4]; Exophiala jeanselmei, read-out: MIC[90]
  MIC: 0.5 µg/mL (≈ 0.713 µM)
